Data: ChEMBL document CHEMBL4312037, “Fragment hopping-based discovery of novel sulfinylacetamide-diarylpyrimidines (DAPYs) as HIV-1 nonnucleoside reverse transcriptase inhibitors” (Eur J Med Chem, 2020)

How the values were obtained:
in vitro [1] = conditions: human, MT4 cells; MT4 cells infected with HIV1 3B
Description: Selectivity index, ratio of CC50 for cytotoxicity against human MT4 cells to EC50 for antiviral activity against HIV1 3B infected in human MT4 cells

[2] = Cytotoxicity against human MT4 cells assessed as reduction in cell viability incubated for 5 days by MTT assay; format: cell-based
[3] = system: Human immunodeficiency virus 1; assay: Antiviral activity against HIV1 3B infected in human MT4 cells assessed as virus-induced cytopathic effect incubated for 5 days by MTT assay; format: functional, organism-based; conditions: Human immunodeficiency virus 1, 3B, MT4, 120 h
in vitro [4] = conditions: human, MT4 cells; MT4 cells infected with HIV1 3B K103N mutant
Description: Selectivity index, ratio of CC50 for cytotoxicity against human MT4 cells to EC50 for antiviral activity against HIV1 3B harbouring NNRTI K103N mutant infected in human MT4 cells

[5] = system: Human immunodeficiency virus 1; assay: Antiviral activity against HIV1 3B harbouring NNRTI K103N mutant infected in human MT4 cells assessed as virus-induced cytopathic effect incubated for 5 days by MTT assay; format: functional, organism-based; conditions: Human immunodeficiency virus 1, 3B, MT4, 120 h
[6] = target: Human immunodeficiency virus type 1 reverse transcriptase (Human immunodeficiency virus 1, UniProt Q72547)
Description: Inhibition of recombinant wild type HIV-1 His-tagged reverse transcriptase p66/p51 expressed in Escherichia coli JM109 using poly(rA)/oligo(dT)16 as template/primer incubated for 40 mins by pico-green based spectrofluorometric analysis

| SMILES | selectivity ratio (in vitro [1]) | CC50 at 120 h [2] [µM] | EC50 [3] [µM] | selectivity ratio (in vitro [4]) | EC50 [5] [µM] | IC50 [6] [µM] |
| --- | --- | --- | --- | --- | --- | --- |
| COc1cc2nc(SCC(=O)Nc3ccc(C)cc3)nc(Nc3c(Cl)cc(/C=C/C#N)cc3Cl)c2cc1OC | < 1 | 2.54 | > 2.53 |  |  |  |
| COc1cc2nc(Nc3ccc(C#N)cc3)nc(Nc3c(C)cc(/C=C/C#N)cc3F)c2cc1OC | > 4250 | > 52 | 0.0122 | > 4720 | 0.011 |  |
| COc1cc2nc([S+]([O-])CC(=O)Nc3ccc([N+](=O)[O-])cc3)nc(Nc3c(Cl)cc(/C=C/C#N)cc3Cl)c2cc1OC (stereo not given) | 2410 | 92.8 | 0.0385 | 2990 | 0.031 |  |
| COc1cc2nc([S+]([O-])CC(=O)Nc3ccc(S(N)(=O)=O)cc3)nc(Nc3c(Cl)cc(/C=C/C#N)cc3Cl)c2cc1OC (stereo not given) | > 10 | > 189 | 19.3 | > 21 | 9.19 |  |
| COc1cc2nc([S+]([O-])CC(=O)Nc3ccc(C#N)cc3)nc(Nc3c(Cl)cc(/C=C/C#N)cc3Cl)c2cc1OC (stereo not given) | ≥ 3240 | ≥ 188 | 0.0582 | ≥ 4420 | 0.0426 |  |
| COc1cc2nc([S+]([O-])CC(=O)Nc3ccccc3[N+](=O)[O-])nc(Nc3c(Cl)cc(/C=C/C#N)cc3Cl)c2cc1OC (stereo not given) |  | > 199 | > 199 |  |  |  |
| COc1cc2nc(SCC(=O)Nc3ccc(Cl)cc3)nc(Nc3c(Cl)cc(/C=C/C#N)cc3Cl)c2cc1OC | 24 | 29.5 | 1.25 | 44 | 0.677 |  |
| COc1cccc(NC(=O)C[S+]([O-])c2nc(Nc3c(Cl)cc(/C=C/C#N)cc3Cl)c3cc(OC)c(OC)cc3n2)c1 (stereo not given) | ≥ 70 | ≥ 167 | 2.37 | ≥ 439 | 0.465 |  |
| COc1cc2nc(Nc3ccc(C#N)cc3)nc(Nc3c(C)cc(/C=C/C#N)cc3C)c2cc1OC | 806 | 10.2 | 0.0127 | 986 | 0.0104 | 0.55 |
| COc1ccc(NC(=O)CSc2nc(Nc3c(C)cc(/C=C/C#N)cc3C)c3cc(OC)c(OC)cc3n2)cc1 | > 82 | > 225 | 2.75 | > 302 | 0.745 |  |
| COc1cc2nc([S+]([O-])CC(=O)Nc3ccccc3C#N)nc(Nc3c(Cl)cc(/C=C/C#N)cc3Cl)c2cc1OC (stereo not given) | > 7 | > 206 | 30.6 | > 18 | 11.7 |  |
| COc1ccccc1NC(=O)C[S+]([O-])c1nc(Nc2c(Cl)cc(/C=C/C#N)cc2Cl)c2cc(OC)c(OC)cc2n1 (stereo not given) | > 63 | > 204 | 3.22 | > 132 | 1.54 |  |
| COc1cc2nc([S+]([O-])CC(=O)Nc3ccccc3C(F)(F)F)nc(Nc3c(Cl)cc(/C=C/C#N)cc3Cl)c2cc1OC (stereo not given) | > 3 | > 192 | 67.1 |  | > 192 |  |
| COc1cc2nc(Nc3ccc(C#N)cc3)nc(Nc3c(F)cc(/C=C/C#N)cc3F)c2cc1OC | 156 | 6.4 | 0.0411 | 355 | 0.0181 |  |
| COc1cc2nc([S+]([O-])CC(=O)Nc3c(C)cc(C)cc3C)nc(Nc3c(Cl)cc(/C=C/C#N)cc3Cl)c2cc1OC (stereo not given) | 1 | 8.87 | 7.31 |  |  |  |
| COc1cc2nc(SCC(=O)Nc3ccc(C#N)cc3)nc(Nc3c(C)cc(/C=C/C#N)cc3C)c2cc1OC | > 746 | > 227 | 0.304 | > 1130 | 0.201 | 3.63 |
| COc1cc2nc(Nc3ccc(C#N)cc3)nc(Nc3c(Cl)cc(/C=C/C#N)cc3Cl)c2cc1OC | 1890 | 9.92 | 0.0053 | 1580 | 0.0063 | 0.046 |
| COc1cc2nc([S+]([O-])CC(=O)Nc3cc([N+](=O)[O-])ccc3F)nc(Nc3c(Cl)cc(/C=C/C#N)cc3Cl)c2cc1OC (stereo not given) | > 24 | > 194 | 8.08 | > 32 | 6 |  |
| COc1cc2nc([S+]([O-])CC(=O)Nc3ccc(C(F)(F)F)cc3)nc(Nc3c(Cl)cc(/C=C/C#N)cc3Cl)c2cc1OC (stereo not given) | 97 | 22 | 0.227 | 247 | 0.0889 |  |
| COc1cc2nc([S+]([O-])CC(=O)Nc3cccc(C#N)c3)nc(Nc3c(Cl)cc(/C=C/C#N)cc3Cl)c2cc1OC (stereo not given) | ≥ 706 | ≥ 70.3 | 0.0996 | ≥ 1840 | 0.0383 |  |
| COc1cc2nc([S+]([O-])CC(=O)Nc3cccc([N+](=O)[O-])c3)nc(Nc3c(Cl)cc(/C=C/C#N)cc3Cl)c2cc1OC (stereo not given) | ≥ 197 | ≥ 83.2 | 0.423 | ≥ 308 | 0.27 |  |

| SMILES | selectivity ratio (in vitro [1]) | CC50 at 120 h [2] [µM] | EC50 [3] [µM] | selectivity ratio (in vitro [4]) | EC50 [5] [µM] | IC50 [6] [µM] |
| --- | --- | --- | --- | --- | --- | --- |
| COc1cc2nc(SCC(=O)Nc3ccc(C(F)(F)F)cc3)nc(Nc3c(Cl)cc(/C=C/C#N)cc3Cl)c2cc1OC | > 10 | > 197 | 20 | > 50 | 3.91 |  |
| COc1cc2nc([S+]([O-])CC(=O)Nc3ccc(C(F)(F)F)cc3)nc(Nc3c(C)cc(/C=C/C#N)cc3C)c2cc1OC (stereo not given) | 116 | 52.2 | 0.45 | 210 | 0.249 |  |
| COc1cc2nc(SCC(=O)Nc3ccc(C(F)(F)F)cc3)nc(Nc3c(C)cc(/C=C/C#N)cc3C)c2cc1OC | > 40 | > 211 | 5.28 | > 87 | 2.41 |  |
| COc1cc2nc(SCC(=O)Nc3ccc(S(N)(=O)=O)cc3)nc(Nc3c(Cl)cc(/C=C/C#N)cc3Cl)c2cc1OC | < 1 | 116 | > 116 |  |  |  |
| COc1cc2nc(SCC(=O)Nc3cccc(S(N)(=O)=O)c3)nc(Nc3c(Cl)cc(/C=C/C#N)cc3Cl)c2cc1OC | > 1 | > 194 | > 194 |  |  |  |
| COc1cc2nc(SCC(=O)Nc3cccc(Cl)c3)nc(Nc3c(Cl)cc(/C=C/C#N)cc3Cl)c2cc1OC | > 1 | > 208 | > 208 |  |  |  |
| COc1cc2nc([S+]([O-])CC(=O)Nc3cccc(S(N)(=O)=O)c3)nc(Nc3c(Cl)cc(/C=C/C#N)cc3Cl)c2cc1OC (stereo not given) | < 1 | 67.8 | > 67.8 |  |  |  |
| COc1cc2nc([S+]([O-])CC(=O)Nc3cccc(F)c3)nc(Nc3c(Cl)cc(/C=C/C#N)cc3Cl)c2cc1OC (stereo not given) | 40 | 9.55 | 0.237 | 137 | 0.0696 |  |
| COc1cc2nc(SCC(=O)Nc3cc([N+](=O)[O-])ccc3F)nc(Nc3c(Cl)cc(/C=C/C#N)cc3Cl)c2cc1OC | > 1 | > 199 | > 199 |  |  |  |
| COc1cc2nc([S+]([O-])CC(=O)Nc3ccc(C)cc3)nc(Nc3c(Cl)cc(/C=C/C#N)cc3Cl)c2cc1OC (stereo not given) | 98 | 32.2 | 0.327 | 657 | 0.049 |  |
| COc1cc2nc([S+]([O-])CC(=O)Nc3ccccc3F)nc(Nc3c(Cl)cc(/C=C/C#N)cc3Cl)c2cc1OC (stereo not given) | > 12 | > 208 | 17 | > 37 | 5.66 |  |
| COc1cc2nc([S+]([O-])CC(=O)Nc3ccc(F)cc3)nc(Nc3c(C)cc(/C=C/C#N)cc3C)c2cc1OC (stereo not given) | 209 | 27.4 | 0.131 | 833 | 0.0329 |  |
| COc1cc2nc(SCC(=O)Nc3ccc(F)cc3)nc(Nc3c(C)cc(/C=C/C#N)cc3C)c2cc1OC | ≥ 66 | ≥ 150 | 2.28 | ≥ 159 | 0.942 |  |
| COc1cc2nc([S+]([O-])CC(=O)Nc3cccc(C(F)(F)F)c3)nc(Nc3c(Cl)cc(/C=C/C#N)cc3Cl)c2cc1OC (stereo not given) | 17 | 21.8 | 1.27 | 35 | 0.626 |  |
| COc1cc2nc([S+]([O-])CC(=O)Nc3cccc(Cl)c3)nc(Nc3c(Cl)cc(/C=C/C#N)cc3Cl)c2cc1OC (stereo not given) | 220 | 68.9 | 0.313 | 1000 | 0.0687 |  |
| COc1cc2nc(SCC(=O)Nc3ccc([N+](=O)[O-])cc3)nc(Nc3c(C)cc(/C=C/C#N)cc3C)c2cc1OC | > 292 | > 219 | 0.749 | > 612 | 0.358 | 4 |
| COc1cc2nc([S+]([O-])CC(=O)Nc3ccc(Cl)cc3)nc(Nc3c(Cl)cc(/C=C/C#N)cc3Cl)c2cc1OC (stereo not given) | 313 | 14.4 | 0.0461 | 550 | 0.0263 |  |
| O=C1Nc2ccc(Cl)cc2[C@@](C#CC2CC2)(C(F)(F)F)O1 [EFAVIRENZ] |  | > 6.34 | 0.0038 |  | 0.124 |  |
| Cc1cc(C#N)cc(C)c1Oc1nc(Nc2ccc(C#N)cc2)nc(N)c1Br [ETRAVIRINE] |  | > 4.59 | 0.0042 |  | 0.0037 |  |
| Cc1ccnc2c1NC(=O)c1cccnc1N2C1CC1 [NEVIRAPINE] |  | > 15 | 0.235 |  | ≥ 11.2 |  |
